Results from patent US9717665B2, “Tooth desensitizing oral care compositions, devices, and methods” (The Procter & Gamble Company, priority 2013, dated 2017).

Tested on: human 3rd molar coronal dentin
Experiment: Dentinal flow rate measurement (Pashley-like flow cell)
Conditions: repeated deposition
Experimental: Volumetric flow rates through cross-sections of human 3rd molar coronal dentin are measured before and after treatment using a flow cell apparatus (FIG. 6). Twenty two coronal dentin sections of human molars are obtained by cross sectional cutting with a diamond blade saw to a thickness between 0.80 and 1.00 mm. The sections resemble disks due to the circular nature of molars. The center of the disk is dentin 90 with a thin ring of enamel around the circumference (FIG. 6). The cut dentin disks are then placed in 6.0% citric acid for two minutes followed by sonication in water and subsequent rinsing to remove the smear layer created by the cutting process. The removal of the smear layer with citric acid is an effective and well known technique to produce open dentinal tubules representative of sensitive dentin found in-vivo. […]
Each dentin disk section is centered over the opening with flat washers 110 and bushing 120 on each side, making sure that the section spanned the opening with at least 1 mm overlap around the entire perimeter. […] The liquid velocity is recorded by timing the movement of the bubble within the supply line. […] Using a digital stop watch, elapsed times are recorded over 4 equidistant points along the ruler to establish the average rate the bubble travels and to ensure the velocity is constant. […]

O=C(O)C(=O)O [oxalate]
Flow rates through dentin: significantly reduce flow rates through dentin
